The target in one assay is T1, GPX4 (Homo sapiens, UniProt P36969).
T1 sequence (P36969 1-170 isoform P36969-2): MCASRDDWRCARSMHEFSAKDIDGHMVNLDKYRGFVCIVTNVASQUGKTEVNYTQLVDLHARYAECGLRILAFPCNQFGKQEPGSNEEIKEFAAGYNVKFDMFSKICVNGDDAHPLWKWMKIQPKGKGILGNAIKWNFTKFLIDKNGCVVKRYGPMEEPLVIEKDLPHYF
Put plainly: GPX4 activity assay in cell lysates (NADPH-coupled). The assay is classed as biochemical. On the set-up: endogenous in cells; host or cells: A-673 cell lysate.
Conditions: not given
On the procedure: Determination of GPX4 activity in cell lysates was performed as previously described by Roveri et al. 1994 with minor modifications. Briefly, the assay measures the consumption of NADPH, which has a characteristic absorbance at 340 nm, over time as a proxy for GPX4 activity. The rationale for this is that as GPX4 reduces phospholipid hydroperoxides, it oxidizes glutathione, which is then regenerated by glutathione reductase at the expense of NADPH. NADPH is added to the assay in excess such that the reduction of oxidized glutathione is not the rate-limiting reaction in the assay. Thus, the resulting reduction in NADPH absorbance over time reflects GPX4 activity.
The GPX4-specific substrate phosphatidylcholine hydroperoxide (PCOOH) was prepared by enzymatic hydroperoxidation. Specifically, 0.3 mM phosphatidylcholines (Sigma-Aldrich) were incubated with 0.7 mg soybean lipoxidase type IV (Sigma-Aldrich) in 22 mL of 0.2 M Tris-HCl pH 8.8 with 3 mM sodium deoxycholate at room temperature under continuous stirring for 30 minutes. A Sep-Pak C18 cartridge (Waters-Millipore) was pre-washed with methanol and equilibrated with water, then the substrate mixture was loaded. The column was washed with 10 volumes of water and PCOOH was eluted with 2 mL of methanol.
To prepare the cell lysate containing native GPX4, A-673 cells were cultured with 20 nM sodium selenite to confluency over two days then harvested and washed with cold PBS. Cells were then resuspended at 10 million cells per 1 mL LCW lysis buffer (0.5% peroxide-free Triton X-100, 0.5% sodium deoxycholate salt, 150 mM NaCl, 20 mM Tris-HCl pH 7.5, 10 mM EDTA, 30 mM sodium pyrophosphate, and complete protease inhibitor cocktail), vortexed for 30 seconds, and incubated on ice for 15 minutes. After lysis, the lysates were centrifuged at 14,000×g and 4° C. for 15 minutes. The supernatants were transferred to new pre-chilled tube and the debris pellet was discarded. The protein concentration in the lysate was determined for normalization using the BCA Protein Assay Kit (Pierce).
To measure GPX4 activity, 50 μL of cell lysate was combined with 200 μL activity assay buffer (0.1% Triton X-100, 100 mM Tris-HCl pH 8.0, 10 mM sodium azide, 5 mM EDTA, 0.6 IU/mL glutathione reductase, 0.5 mM NADPH and 3 mM GSH) and compounds of interest in a clear 96-well plate and incubated at 37° C. for 45 minutes. Compounds were dissolved in DMSO. All conditions were tested in triplicate. PCOOH substrate was added to the mixture to initiate GPX4 activity just before reading the plate. The absorbance of NADPH at 340 nm was monitored kinetically over time for 25 minutes. Buffer-only controls and controls without substrate containing only the methanol vehicle were performed to assess background and baseline signal. GPX4 activity was calculated as previously reported by Stolwijk et al. 2020 and results were analyzed in GraphPad Prism 9.
On to `COc1cc(-c2ccc3c(C(=O)NC(C)(C)COC(=O)CCl)nn(C)c3c2)ccc1Cl` [QW-556], for which the “GPX4 inhibitory activity, result in words” value is recorded as “reduced the inhibitory activity”.
With `CC(C)(COC(=O)CCl)NC(=O)c1n[nH]c2cc(-c3ccc(N4CCOCC4)c(Cl)c3)ccc12` [QW-583], the “GPX4 inhibitory activity, result in words” value is “slight loss of inhibitory activity”.

The assay is the same for the next values; noted with them: 2.5 μM.
Take `Cn1nc(C(=O)NC(C)(C)COC(=O)CCl)c2ccc(-c3cccc(C=O)c3)cc21` [QW-599]: the “GPX4% inhibition at 2.5 μM” value worked out at 51.0 ± 4.4%.
As to `Cn1nc(C(=O)NC(C)(C)COC(=O)CCl)c2ccc(-c3ccc(Br)cc3)cc21` [QW-603], the “GPX4% inhibition at 2.5 μM” value came out at 45.5 ± 4.4%.
Take `COc1ccc(-c2ccc3c(C(=O)NC(C)(C)COC(=O)CBr)nn(C)c3c2)cc1Cl` [QW-608]: the “GPX4% inhibition at 2.5 μM” value came out at 72.2 ± 5.9%.
Regarding `C=CC(=O)OCC(C)(C)NC(=O)c1nn(C)c2cc(-c3ccc(OC)c(Cl)c3)ccc12` [QW-609], the “GPX4% inhibition at 2.5 μM” value is on record as 6.7 ± 11.9%.
Regarding `COc1ccc(-c2ccc3c(C(=O)NC(C)(C)COC(=O)CCl)nn(C)c3c2)cc1Br` [QW-611], the “GPX4% inhibition at 2.5 μM” value was 81.5 ± 1.9%.
As for `COc1ccc(-c2ccc3c(C(=O)NC(C)(C)COC(=O)C#C[Si](C)(C)C)nn(C)c3c2)cc1Cl` [QW-612], the “GPX4% inhibition at 2.5 μM” value is on record as −5.7 ± 11.7%.
Regarding `CN1CCN(Cc2ccc(-c3ccc4c(C(=O)NC(C)(C)COC(=O)CCl)nn(C)c4c3)cc2)CC1` [QW-617], the “GPX4% inhibition at 2.5 μM” value came to 80.9 ± 3.4%.
As to `Cn1nc(C(=O)NC(C)(C)COC(=O)CCl)c2ccc(-c3ccc(NS(C)(=O)=O)cc3)cc21` [QW-618], the “GPX4% inhibition at 2.5 μM” value was 18.1 ± 5.9%.
Still for that read-out and setting: under `Cn1nc(C(=O)NC(C)(C)COC(=O)CCl)c2ccc(-c3ccc(C(=O)N4CCN(C(=O)OC(C)(C)C)CC4)cc3)cc21` [QW-619] stands 42.6 ± 8.0%.
With `C=C(C)C(=O)Nc1ccc(-c2ccc3c(C(=O)NC(C)(C)COC(=O)CCl)nn(C)c3c2)cc1` [QW-620], the “GPX4% inhibition at 2.5 μM” value is recorded as 63.8 ± 7.8%.
For the compound `Cn1nc(C(=O)NC(C)(C)CNC(=O)CCl)c2ccc(-c3ccc(N4CCOCC4)c(Cl)c3)cc21` [QW-629], the “GPX4% inhibition at 2.5 μM” value came out at 14.9 ± 16.7%.
Consider `CSc1ccc(-c2ccc3c(C(=O)NC(C)(C)CNC(=O)CCl)nn(C)c3c2)cc1Cl` [QW-631], for which the “GPX4% inhibition at 2.5 μM” value is given as 14.3 ± 16.5%.
On the same count and under the same terms, with `COC(=O)c1ccc(-c2ccc3c(C(=O)NC(C)(C)CNC(=O)CCl)nn(C)c3c2)cc1Cl` [QW-632] the figure was −4.9 ± 21.8%; with `CC(C)Oc1ccc(-c2ccc3c(C(=O)NC(C)(C)CNC(=O)CCl)nn(C)c3c2)cc1Cl` [QW-635], 14.0 ± 15.4%.
`Cn1nc(C(=O)NC(C)(C)CNC(=O)CCl)c2ccc(-c3ccc(Cl)c(Cl)c3)cc21` [QW-636]: the “GPX4% inhibition at 2.5 μM” value is 50.2 ± 22.0%.
On the same count and under the same terms, under `CC=CC(=O)OCC(C)(C)NC(=O)c1nn(C)c2cc(-c3ccc(OC)c(Cl)c3)ccc12` [QW-644] stands 31.4 ± 18.5%; under `COC(=O)C=CC(=O)OCC(C)(C)NC(=O)c1nn(C)c2cc(-c3ccc(OC)c(Cl)c3)ccc12` [QW-646], 52.0 ± 27.0%; under `CN(C)CCCOc1ccc(-c2ccc3c(C(=O)NC(C)(C)COC(=O)CCl)nn(C)c3c2)cc1` [QW-647], 46.9 ± 35.9%.
Regarding `Cn1nc(C(=O)NC(C)(C)COC(=O)CCl)c2ccc(-c3cc4cc(F)ccc4n3C(=O)OC(C)(C)C)cc21` [QW-659], the “GPX4% inhibition at 2.5 μM” value is −1.2 ± 15.2%.

Still in this assay, the particulars now being: 2.5 μM; generation 2.
Consider `Cn1nc(C(=O)NC(C)(C)CC(=O)N2CCN(C(=O)CCl)CC2)c2ccc(Br)cc21` [QW-638], for which the “GPX4% inhibition at 2.5 μM” value is listed as 39.0 ± 26.2%.
Still for that read-out and setting: with `C=C(CN1CCOCC1)C(=O)NCC(C)(C)NC(=O)c1nn(C)c2cc(Br)ccc12` [QW-648] the figure was 15.8 ± 24.7%; with `Cn1nc(C(=O)N2CCC(OC(=O)CCl)C2(C)C)c2ccc(Br)cc21` (stereo not drawn) [QW-673], 41.9 ± 63.4%.

Still in this assay, the particulars now being: 5 μM.
As for `Cn1nc(C(=O)NC(C)(C)COC(=O)CCl)c2ccc(-c3coc4ccccc34)cc21` [QW-535], the “GPX4% inhibition at 5 μM” value is 62.2 ± 5.1%.
Same read-out and setting: under `CCOc1ncc(-c2ccc3c(C(=O)NC(C)(C)COC(=O)CCl)nn(C)c3c2)cn1` [QW-536] stands 46.6 ± 2.3%; under `Cn1nc(C(=O)NC(C)(C)COC(=O)CCl)c2ccc(-c3ccc(N4CCOCC4)nc3)cc21` [QW-537], 46.1 ± 2.7%; under `Cn1nc(C(=O)NC(C)(C)COC(=O)CCl)c2ccc(-c3ccc(CN4CCOCC4)cc3)cc21` [QW-539], 49.6 ± 4.5%.
In the case of `Cn1nc(C(=O)NC(C)(C)COC(=O)CCl)c2ccc(-c3cnc4ccccc4c3)cc21` [QW-542], the “GPX4% inhibition at 5 μM” value was determined as 75.6 ± 4.5%.
With `Cn1nc(C(=O)NC(C)(C)COC(=O)CCl)c2ccc(-c3ccc(N4CCOCC4)cc3)cc21` [QW-547], the “GPX4% inhibition at 5 μM” value was determined as 72.0 ± 0.4%.
Consider `C=Cc1ccc(-c2ccc3c(C(=O)NC(C)(C)COC(=O)CCl)nn(C)c3c2)cc1` [QW-554], for which the “GPX4% inhibition at 5 μM” value is given as 41.4 ± 4.5%.
Turning to `C#Cc1ccc(-c2ccc3c(C(=O)NC(C)(C)COC(=O)CCl)nn(C)c3c2)cc1` [QW-555], the “GPX4% inhibition at 5 μM” value is on record as 20.2 ± 0.5%.
For `COc1cc(-c2ccc3c(C(=O)NC(C)(C)COC(=O)CCl)nn(C)c3c2)ccc1Cl` [QW-556], the “GPX4% inhibition at 5 μM” value turned out to be 80.2 ± 1.8%.
Same read-out and setting: with `CSc1ccc(-c2ccc3c(C(=O)NC(C)(C)COC(=O)CCl)nn(C)c3c2)cc1Cl` [QW-558] the figure was 91.2 ± 2.3%; with `COc1ccc(-c2ccc3c(C(=O)NC(C)(C)COC(=O)CCl)nn(C)c3c2)cc1F` [QW-567], 54.7 ± 3.4%.
As to `CN(C)c1ccc(-c2ccc3c(C(=O)NC(C)(C)COC(=O)CCl)nn(C)c3c2)cc1` [QW-568], the “GPX4% inhibition at 5 μM” value is recorded as 67.5 ± 3.9%.
With `COC(=O)c1ccc(-c2ccc3c(C(=O)NC(C)(C)COC(=O)CCl)nn(C)c3c2)cc1Cl` [QW-571], the “GPX4% inhibition at 5 μM” value was determined as 82.5 ± 5.2%.
Turning to `COC(=O)C=Cc1ccc(-c2ccc3c(C(=O)NC(C)(C)COC(=O)CCl)nn(C)c3c2)cc1` [QW-574], the “GPX4% inhibition at 5 μM” value stood at 72.8 ± 7.7%.
Take `Cn1nc(C(=O)NC(C)(C)COC(=O)CCl)c2ccc(-c3ccc(C=CCCl)cc3)cc21` [QW-575]: the “GPX4% inhibition at 5 μM” value came to 35.9 ± 1.3%.
Consider `Cn1nc(C(=O)NC(C)(C)COC(=O)CCl)c2ccc(-c3cnn(Cc4ccccc4)c3)cc21` [QW-579], for which the “GPX4% inhibition at 5 μM” value was 66.3 ± 3.4%.
`CC(C)(COC(=O)CCl)NC(=O)c1n[nH]c2cc(-c3ccc(N4CCOCC4)c(Cl)c3)ccc12` [QW-583]: the “GPX4% inhibition at 5 μM” value amounted to 70.9 ± 6.7%.
`COc1ccc(-c2ccc3c(c2)c(C(=O)NC(C)(C)COC(=O)CCl)nn3C)cc1Cl` [QW-584]: the “GPX4% inhibition at 5 μM” value stood at 9.5 ± 5.1%.
Take `Cn1nc(C(=O)NC(C)(C)COC(=O)CCl)c2cc(-c3ccc(N4CCOCC4)c(Cl)c3)ccc21` [QW-585]: the “GPX4% inhibition at 5 μM” value was determined as 23.3 ± 5.2%.
For the compound `COc1ccc(F)c(-c2ccc3c(C(=O)NC(C)(C)COC(=O)CCl)nn(C)c3c2)c1` [QW-588], the “GPX4% inhibition at 5 μM” value amounted to 59.5 ± 5.7%.
As to `COc1ccc(Cl)cc1-c1ccc2c(C(=O)NC(C)(C)COC(=O)CCl)nn(C)c2c1` [QW-590], the “GPX4% inhibition at 5 μM” value was found to be 53.5 ± 6.3%.
Consider `Cn1nc(C(=O)NC(C)(C)COC(=O)CCl)c2ccc(-c3ccc(C=O)cc3)cc21` [QW-591], for which the “GPX4% inhibition at 5 μM” value was 69.4 ± 3.3%.
On the same count and under the same terms, with `Cn1nc(C(=O)NC(C)(C)CNC(=O)CCl)c2ccc(-c3ccc(Cl)c(Cl)c3)cc21` [QW-636] the figure was 76.4 ± 32.7%; with `COC(=O)C=CC(=O)OCC(C)(C)NC(=O)c1nn(C)c2cc(-c3ccc(OC)c(Cl)c3)ccc12` [QW-646], 30.6 ± 12.2%.
As to `CN(C)CCCOc1ccc(-c2ccc3c(C(=O)NC(C)(C)COC(=O)CCl)nn(C)c3c2)cc1` [QW-647], the “GPX4% inhibition at 5 μM” value was 20.9 ± 14.0%.
The same measure, in the same setting: under `Cn1nc(C(=O)NC(C)(C)COC(=O)CCl)c2ccc(-c3cc4cc(F)ccc4n3C(=O)OC(C)(C)C)cc21` [QW-659] stands 8.5 ± 13.4%.

Still in this assay, the particulars now being: concentration not given.
With `CN(C)c1ccc(-c2ccc3c(C(=O)NC(C)(C)COC(=O)CCl)nn(C)c3c2)cc1` [QW-568], the GPX4 inhibition rate came to 50%.

Values taken from patent US20250248979A1, “NOVEL GPX4 INHIBITORS AND USES THEREOF” (THE TRUSTEES OF COLUMBIA UNIVERSITY IN THE CITY OF NEW YORK, priority 2022, published 2025).
